Reference: patent US20260240878A1, “PTP1B/TC-PTP DUAL INHIBITORS AND PROTEIN DEGRADERS” (Purdue Research Foundation, priority 2023, published 2026)
*1 amine or outer side, *2 acyl side, *3 side chain or, on linkers, in order; H or OH if unused. Where a SMILES comes first, the peptide text is derived from it. [ ]: non-standard residue; d: D form. The star is where a group is joined. NHCH2(1,3-C6H4)CH2CO = O=C(Cc1cccc(CN[*:1])c1)[*:2]; F2Pmp = N[C@@H](Cc1ccc(C(F)(F)P(=O)(O)O)cc1)C(=O)O; Phenylacetyl(4-OH,3-OMe) = COc1cc(CC(=O)*)ccc1O; Benzoyl(3-Br,4-Me) = Cc1ccc(C(=O)*)cc1Br; X1 = Cc1ncsc1-c1ccc([C@H](C)N*)cc1; Hyp = O=C(O)[C@@H]1C[C@@H](O)CN1; Tle = CC(C)(C)[C@H](N)C(=O)O

Experiments:
[1] = molecular target: T1, PTP1B (Homo sapiens, UniProt P18031); assay: PTP activity assay with pNPP substrate (IC50, Ki, mode of inhibition); assay type: biochemical; conditions: pNPP 2 mM, pH 7.0, 25° C.; read-out: IC50, nM PTP1B
T1 sequence (P18031 1-435): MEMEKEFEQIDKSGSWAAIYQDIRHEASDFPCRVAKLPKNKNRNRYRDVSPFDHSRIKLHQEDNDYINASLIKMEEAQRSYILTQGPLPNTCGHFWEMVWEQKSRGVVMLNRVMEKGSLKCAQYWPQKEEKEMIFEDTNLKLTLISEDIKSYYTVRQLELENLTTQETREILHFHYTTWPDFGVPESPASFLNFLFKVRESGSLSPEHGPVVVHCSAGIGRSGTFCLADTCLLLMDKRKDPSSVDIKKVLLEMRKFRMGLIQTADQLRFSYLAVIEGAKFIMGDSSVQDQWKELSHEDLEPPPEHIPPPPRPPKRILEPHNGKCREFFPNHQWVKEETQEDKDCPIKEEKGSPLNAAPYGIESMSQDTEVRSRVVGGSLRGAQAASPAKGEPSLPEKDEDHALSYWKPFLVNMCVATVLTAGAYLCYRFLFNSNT
Procedure, shortened: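 Hydrolysis of pNPP measured spectrophotometrically in pH 7.0 DMG buffer (EDTA, NaCl, DTT, BSA) at 25 °C, 0.4 nM enzyme. IC50 at 2 mM pNPP (Km) over an inhibitor titration; mode of inhibition and Ki from rates across varied pNPP and inhibitor levels, fitted to enzyme kinetic models.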

[2] = test system: PTP1B and TC-PTP; assay: Western blot quantification of PTP1B/TC-PTP and pSTAT1 in multiple cell lines; assay type: cell-based
Description: The GAPDH protein was used as the loading control. Compound 47 induces PTP1B and TC-PTP degradation in all tested cell lines with low nanomolar DC50s.
The GAPDH protein was used as the loading control. […] The changes in pSTAT1 level were positively correlated with TC-PTP/PTP1B degradation among all cell lines.
Tissues or cultured cells were lysed with ice-cold lysis buffer (50 mM Tris (pH 8.0, 150 mM NaCl, 10% Glycerol, 1% Triton-X-100) supplied with phosphatase inhibitor (Bimake) and protease inhibitor mixture (Roche Applied Science). Equal amounts of protein were resolved by SDS-PAGE, transferred to nitrocellulose membrane, and subjected to immunoblotting. Antibodies used in this study include anti-following proteins: pSTAT1^Tyr701 (Cell Signaling Technology #9167, 1:3000), GAPDH (Cell Signaling Technology #97166, 1:5000), pJAK1^Tyr1034/1035 (Cell Signaling Technology #74129, 1:1000), pJAK2^Tyr1007/1008 (Cell Signaling Technology #3776, 1:1000), TC-PTP (Abcam #ab180764, 1:3000). PTP1B (Abcam #ab244207, 1:1500).

[3] = test system: CD8+ naïve T-cells; assay: Degradation, STAT phosphorylation and activation in CD8+ naive T-cells (flow cytometry); assay type: cell-based, mouse
Description: In (A) purified CD8^+ naïve T-cells from control (Ptpn2^fl/fl) and Lck-Cre; Ptpn2^fl/fl mice (n=3/genotype/condition) were incubated for 48 hours with IL-7 in the presence or absence of compound 47 as indicated, and TC-PTP and PTP1B protein levels were monitored by flow cytometry. (B) show vehicle-treated control, TCPTP-deficient Lck-Cre; Ptpn2^fl/fl and compound 47-treated control naïve CD8^+ T-cells were stimulated with plate-bound α-CD3/α-CD28 for 48 hours to promote T-cell activation. Basal STAT-1 (p(Y701) STAT-1) and STAT-5 (p(Y694) STAT-5) phosphorylation were assessed by flow cytometry. (C) cell size (FSC-A) and the T-cell activation markers CD25, CD69 and CD44 (MFI: mean fluorescence intensities) were measured by flow cytometry. (dot (●) represents Ptpn2^fl/fl+Vehicle, square (▪) represents Lck-Cre; Ptpn2^fl/fl+Vehicle, triangle (▴) represents Ptpn2^fl/fl+ compound 47).
Beyond attenuating JAK/STAT signaling in tumor cells, PTP1B and TC-PTP also have fundamental roles in T-cells, and the deletion of either TC-PTP or PTP1B in T-cells can markedly enhance anti-tumor immunity. TC-PTP attenuates T-cell receptor (TCR) signaling by dephosphorylating and inactivating the Src family kinase LCK. TC-PTP attenuates JAK/STAT1/5 signaling in response to cytokines such as IFNs and IL-2, which are required for the activation, clonal expansion, and differentiation of T-cells. The deletion of TC-PTP in T-cells enhances immunosurveillance and inhibits the growth of syngeneic tumors in mice and the anti-tumor efficacy of adoptively transferred T-cells. PTP1B also negatively regulates IL-2-induced JAK/STAT5 signaling in T-cells, and its deletion or inhibition in vivo can enhance the anti-tumor activity of T-cells. Accordingly, the impact of targeting PTP1B and TC-PTP with compound 47 on JAK/STAT signaling and the activation of T-cells after crosslinking the TCR was assessed. The effects of compound 47 were compared with the genetic deletion of TC-PTP (encoded by Ptpn2) in T-cells (Lck-Cre; Ptpn2^fl/fl). First, the impact of compound 47 on TC-PTP and PTP1B protein levels was assessed by flow cytometry using validated antibodies. […] The degradation of TC-PTP and PTP1B was accompanied by a more than 3-fold increase in STAT1 Y701 phosphorylation and a 2-fold increase in STAT5 Y694 phosphorylation detected after crosslinking the TCR with α-CD3/α-CD28 to activate T-cells (FIG. 9B). Importantly, the promotion of pSTAT1/Y701 and pSTAT5/Y694 by compound 47 treatment exceeded that achieved by the genetic deletion of TC-PTP, consistent with compound 47 targeting both TC-PTP and PTP1B to enhance signaling. […] CD25 (IL-2 receptor a), and CD69 (FIG. 9C). […] This was not necessarily a surprise since TC-PTP, but not PTP1B, attenuates TCR signaling in naive CD8^+ T-cells.

[4] = after crosslinking the TCR with α-CD3/α-CD28

**Q.** How did the IC50 [1] turn out when `COc1cc(CC(=O)N[C@@H](Cc2ccccc2)C(=O)N[C@@H](Cc2ccc(C(F)(F)P(=O)(O)O)cc2)C(=O)N[C@@H](CCCCNC(=O)c2ccc(C)c(Br)c2)C(=O)NCc2cccc(CC(=O)N[C@H](C(=O)N3C[C@H](O)C[C@H]3C(=O)N[C@@H](C)c3ccc(-c4scnc4C)cc3)C(C)(C)C)c2)ccc1O` [Compound 47, ((4-((S)-3-(((S)-6-(3-bromo-4-methylbenzamido)-1-((3-(2-(((S)-1-((2S,4R)-4-hydroxy-2-(((S)-1-(4-(4-methylthiazol-5-yl)phenyl)ethyl)carbamoyl)pyrrolidin-1-yl)-3,3-dimethyl-1-oxobutan-2-yl)amino)-2-oxoethyl)benzyl)amino)-1-oxohexan-2-yl)amino)-2-((S)-2-(2-(4-hydroxy-3-methoxyphenyl)acetamido)-3-phenylpropanamido)-3-oxopropyl)phenyl)difluoromethyl)phosphonic Acid] ({Phenylacetyl(4-OH,3-OMe)}-F[F2Pmp]K(Benzoyl(3-Br,4-Me))[NHCH2(1,3-C6H4)CH2CO][Tle][Hyp]-X1) was run?
**A.** 24.2 ± 1.7 nM

**Q.** And the “DC50 of PTP1B and TC-PTP degradation” value ([2]; all tested cell lines, 16 hours)?
**A.** low nanomolar

**Q.** And the pSTAT1 level ([2]; multiple cell lines, 10 ng/ml IFN-γ 15 mins)?
**A.** enhances pSTAT1 level in all cell lines

**Q.** And the “TCR-induced activation of T-cells (cell size, CD44, CD25, CD69)” value [3]?
**A.** enhanced the TCR-induced activation of T-cells

**Q.** And the “TC-PTP and PTP1B protein levels in T-cells” value ([3]; 48 hr treatment)?
**A.** effectively degraded

**Q.** And the “increase in STAT1 Y701 phosphorylation” value [3, 4]?
**A.** more than 3 fold

**Q.** And the “increase in STAT5 Y694 phosphorylation” value [3, 4]?
**A.** 2 fold
